How the values were obtained:
Test in all cases: Cell viability assay (CellTiter Glo)
Type in all cases: cell-based, mouse
[1] = target: T1, Ba/F3 ERBB2-L869R (Homo sapiens, UniProt P04626, L869R, cells depend on it); settings: 72 hours; 3000 cells per well, 96-well plates; read-out: Cell viability IC50, nM, Ba/F3 ERBB2-L869R
T1 construct: Ba/F3 cell lines were engineered to express human ERBB2 or EGFR kinases, rendering the cells IL-3 independent
In short: (§1)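 Murine Ba/F3 cells made IL-3-independent by retroviral human EGFR or ERBB2 were seeded at 3000 or 300 cells per well and exposed to serially diluted compound (DMSO ≤0.1%) for 72 hours at 37° C, 5% CO2. CellTiter Glo luminescence was normalised to DMSO and media-only controls and fitted to a sigmoidal dose-response.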

[2] = target: T2, Ba/F3 ERBB2-L755S (Homo sapiens, UniProt P04626, L755S, cells depend on it); settings: 72 hours; 3000 cells per well, 96-well plates; read-out: Cell viability IC50, nM, Ba/F3 ERBB2-L755S
T2 construct: Ba/F3 cell lines were engineered to express human ERBB2 or EGFR kinases, rendering the cells IL-3 independent
In short: as §1

[3] = target: T3, Ba/F3 ERBB2-V777L (Homo sapiens, UniProt P04626, V777L, cells depend on it); settings: 72 hours; 3000 cells per well, 96-well plates; read-out: Cell viability IC50, nM, Ba/F3 ERBB2-V777L
T3 construct: Ba/F3 cell lines were engineered to express human ERBB2 or EGFR kinases, rendering the cells IL-3 independent
In short: as §1

[4] = target: T4, Ba/F3 ERBB2 A775_G776insYVMA (Homo sapiens, UniProt P04626, DUP772-775, cells depend on it); settings: 72 hours; 3000 cells per well, 96-well plates (Tables B3-B4); read-out: Cell viability IC50, nM, Ba/F3 ERBB2 A775_G776insYVMA
T4 construct: Ba/F3 cell lines were engineered to express human ERBB2 or EGFR kinases, rendering the cells IL-3 independent
In short: as §1

[5] = target: T5, Ba/F3 ERBB2-V777_G778insGC (Homo sapiens, UniProt P04626, INS778CG, cells depend on it); settings: 72 hours; 3000 cells per well, 96-well plates; read-out: Cell viability IC50, nM, Ba/F3 ERBB2-V777_G778insGC
T5 construct: Ba/F3 cell lines were engineered to express human ERBB2 or EGFR kinases, rendering the cells IL-3 independent
In short: as §1

[6] = target: T6, Ba/F3 ERBB2 wt (Homo sapiens, UniProt P04626); settings: 72 hours; 3000 cells per well, 96-well plates; read-out: Cell viability IC50, nM, Ba/F3 ERBB2 wt
T6 construct: Ba/F3 cell lines were engineered to express human ERBB2 or EGFR kinases, rendering the cells IL-3 independent
In short: as §1

[7] = target: T7, Ba/F3 ERBB2-T798M (Homo sapiens, UniProt P04626, T798M, cells depend on it); settings: 72 hours; 3000 cells per well, 96-well plates; read-out: Cell viability IC50, nM, Ba/F3 ERBB2-T798M
T7 construct: Ba/F3 cell lines were engineered to express human ERBB2 or EGFR kinases, rendering the cells IL-3 independent
In short: as §1

[8] = target: T8, Ba/F3 ERBB2-G776VC (Homo sapiens, UniProt P04626, DELINS776-776VC, cells depend on it); settings: 72 hours; 3000 cells per well, 96-well plates; read-out: Cell viability IC50, nM, Ba/F3 ERBB2-G776VC
T8 construct: Ba/F3 cell lines were engineered to express human ERBB2 or EGFR kinases, rendering the cells IL-3 independent
In short: as §1

[9] = target: T9, Ba/F3 ERBB2-P780_Y781insGSP (Homo sapiens, UniProt P04626, DUP778-780, cells depend on it); settings: 72 hours; 3000 cells per well, 96-well plates; read-out: Cell viability IC50, nM, Ba/F3 ERBB2-P780_Y781insGSP
T9 construct: Ba/F3 cell lines were engineered to express human ERBB2 or EGFR kinases, rendering the cells IL-3 independent
Protocol: Cells were treated with compounds, and cell viability was measured as a metric of kinase inhibition.
The Ba/F3 cell line is IL-3-dependent mouse cell line derived from the C3H mouse strain. Ba/F3 cell lines were engineered to express human ERBB2 or EGFR kinases, rendering the cells IL-3 independent. The lines were generated via retroviral transduction utilizing a Moloney murine leukemia virus (MMLV) promoter, and constructs are stably integrated into the cell genome.
Similarly, Ba/F3 cell lines engineered to express EGFR, ERBB2, or ERBB2 mutants were grown, harvested, counted and seeded at 3000 cells per well in 96-well plates for the data sets shown in Tables B3-B4, and seeded at 300 cells per well in 384-well plates for the data set shown in Table B5. A subset of wells contained media only (low control, “LC”).
Table B2 provides the growth media and number of cells seeded per well for the each cell line.
Compounds were dissolved in DMSO and serially diluted. Serially-diluted compound or a DMSO only control (high control, “HC”) was added to the plated cells in each well. […] The final proportion of DMSO never exceeded 0.1%.
Plates were placed in a 37° C., 5% CO2 incubator for 72 hours. Plates were then removed from the incubator and equilibrated for 15 minutes at room temperature. 40 IA of CellTiter Glo reagent (Promega) was added to measure the relative level of metabolically active cells by quantifying intracellular ATP concentrations. Plates were incubated for 30 minutes at room temperature, and luminescence was measured. […] Graphical curves were fitted using a nonlinear regression model with a sigmoidal dose response.

T2 sequence (P04626 whole entry L755S): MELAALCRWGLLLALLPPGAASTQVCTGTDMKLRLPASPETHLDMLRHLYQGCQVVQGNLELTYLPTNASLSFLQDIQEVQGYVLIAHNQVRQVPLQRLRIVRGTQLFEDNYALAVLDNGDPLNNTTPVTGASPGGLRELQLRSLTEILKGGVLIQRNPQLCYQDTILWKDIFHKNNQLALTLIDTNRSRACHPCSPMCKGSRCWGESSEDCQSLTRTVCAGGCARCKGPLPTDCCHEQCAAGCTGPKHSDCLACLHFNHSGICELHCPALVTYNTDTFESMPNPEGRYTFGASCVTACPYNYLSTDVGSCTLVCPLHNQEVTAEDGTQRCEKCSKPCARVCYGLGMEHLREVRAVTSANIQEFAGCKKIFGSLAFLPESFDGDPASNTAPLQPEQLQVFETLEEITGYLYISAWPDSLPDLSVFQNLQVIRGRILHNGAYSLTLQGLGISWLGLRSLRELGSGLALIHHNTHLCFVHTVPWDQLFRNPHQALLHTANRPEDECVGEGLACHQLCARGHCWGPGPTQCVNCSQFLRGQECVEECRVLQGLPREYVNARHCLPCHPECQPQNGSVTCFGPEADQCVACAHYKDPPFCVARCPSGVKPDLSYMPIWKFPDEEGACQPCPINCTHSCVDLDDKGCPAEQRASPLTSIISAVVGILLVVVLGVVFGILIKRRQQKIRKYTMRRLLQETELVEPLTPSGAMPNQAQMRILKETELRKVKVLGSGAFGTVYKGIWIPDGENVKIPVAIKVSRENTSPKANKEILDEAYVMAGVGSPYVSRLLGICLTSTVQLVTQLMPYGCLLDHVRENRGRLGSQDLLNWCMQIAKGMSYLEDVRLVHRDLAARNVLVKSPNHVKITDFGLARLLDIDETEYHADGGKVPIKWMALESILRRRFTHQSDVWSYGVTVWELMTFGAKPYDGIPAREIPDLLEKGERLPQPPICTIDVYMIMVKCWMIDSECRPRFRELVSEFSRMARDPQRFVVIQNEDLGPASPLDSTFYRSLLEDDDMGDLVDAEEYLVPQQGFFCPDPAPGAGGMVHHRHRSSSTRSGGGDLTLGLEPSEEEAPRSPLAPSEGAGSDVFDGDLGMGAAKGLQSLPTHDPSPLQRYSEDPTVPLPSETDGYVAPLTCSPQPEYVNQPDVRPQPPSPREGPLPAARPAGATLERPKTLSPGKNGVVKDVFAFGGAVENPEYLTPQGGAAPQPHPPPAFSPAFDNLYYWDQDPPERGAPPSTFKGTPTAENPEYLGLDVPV
T8 sequence (P04626 with tags, fused parts or gaps DELINS776-776VC): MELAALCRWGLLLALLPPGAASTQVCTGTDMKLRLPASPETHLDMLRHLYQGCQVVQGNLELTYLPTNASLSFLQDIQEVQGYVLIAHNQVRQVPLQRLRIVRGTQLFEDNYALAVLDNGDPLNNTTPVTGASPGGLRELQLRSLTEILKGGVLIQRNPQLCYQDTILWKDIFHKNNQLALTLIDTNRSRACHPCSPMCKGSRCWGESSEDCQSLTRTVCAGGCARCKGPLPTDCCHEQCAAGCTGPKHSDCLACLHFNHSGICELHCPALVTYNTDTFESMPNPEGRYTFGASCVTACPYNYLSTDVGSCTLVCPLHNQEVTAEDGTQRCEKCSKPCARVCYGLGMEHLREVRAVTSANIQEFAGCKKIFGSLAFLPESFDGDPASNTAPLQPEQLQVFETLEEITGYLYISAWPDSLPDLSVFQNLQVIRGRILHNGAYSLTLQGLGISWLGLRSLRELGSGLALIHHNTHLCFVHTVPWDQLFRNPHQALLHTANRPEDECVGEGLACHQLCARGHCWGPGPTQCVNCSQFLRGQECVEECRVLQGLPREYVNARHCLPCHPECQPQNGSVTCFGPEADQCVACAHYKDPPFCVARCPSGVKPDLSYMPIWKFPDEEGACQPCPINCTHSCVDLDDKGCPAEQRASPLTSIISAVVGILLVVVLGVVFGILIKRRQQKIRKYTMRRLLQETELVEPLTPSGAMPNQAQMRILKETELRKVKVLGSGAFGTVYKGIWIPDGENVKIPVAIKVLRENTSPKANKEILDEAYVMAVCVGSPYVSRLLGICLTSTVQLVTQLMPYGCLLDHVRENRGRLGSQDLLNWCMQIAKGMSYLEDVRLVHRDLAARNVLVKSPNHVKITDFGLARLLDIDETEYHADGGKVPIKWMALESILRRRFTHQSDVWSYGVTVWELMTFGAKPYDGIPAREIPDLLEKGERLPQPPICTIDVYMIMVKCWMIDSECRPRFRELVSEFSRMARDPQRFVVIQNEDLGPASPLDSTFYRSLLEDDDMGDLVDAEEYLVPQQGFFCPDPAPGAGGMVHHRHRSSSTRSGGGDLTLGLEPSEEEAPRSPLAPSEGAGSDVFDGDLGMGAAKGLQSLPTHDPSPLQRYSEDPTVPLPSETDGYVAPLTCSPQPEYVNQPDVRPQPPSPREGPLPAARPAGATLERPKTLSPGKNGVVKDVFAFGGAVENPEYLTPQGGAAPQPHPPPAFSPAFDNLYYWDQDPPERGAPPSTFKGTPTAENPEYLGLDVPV
T6 sequence (P04626 whole entry, change not shown): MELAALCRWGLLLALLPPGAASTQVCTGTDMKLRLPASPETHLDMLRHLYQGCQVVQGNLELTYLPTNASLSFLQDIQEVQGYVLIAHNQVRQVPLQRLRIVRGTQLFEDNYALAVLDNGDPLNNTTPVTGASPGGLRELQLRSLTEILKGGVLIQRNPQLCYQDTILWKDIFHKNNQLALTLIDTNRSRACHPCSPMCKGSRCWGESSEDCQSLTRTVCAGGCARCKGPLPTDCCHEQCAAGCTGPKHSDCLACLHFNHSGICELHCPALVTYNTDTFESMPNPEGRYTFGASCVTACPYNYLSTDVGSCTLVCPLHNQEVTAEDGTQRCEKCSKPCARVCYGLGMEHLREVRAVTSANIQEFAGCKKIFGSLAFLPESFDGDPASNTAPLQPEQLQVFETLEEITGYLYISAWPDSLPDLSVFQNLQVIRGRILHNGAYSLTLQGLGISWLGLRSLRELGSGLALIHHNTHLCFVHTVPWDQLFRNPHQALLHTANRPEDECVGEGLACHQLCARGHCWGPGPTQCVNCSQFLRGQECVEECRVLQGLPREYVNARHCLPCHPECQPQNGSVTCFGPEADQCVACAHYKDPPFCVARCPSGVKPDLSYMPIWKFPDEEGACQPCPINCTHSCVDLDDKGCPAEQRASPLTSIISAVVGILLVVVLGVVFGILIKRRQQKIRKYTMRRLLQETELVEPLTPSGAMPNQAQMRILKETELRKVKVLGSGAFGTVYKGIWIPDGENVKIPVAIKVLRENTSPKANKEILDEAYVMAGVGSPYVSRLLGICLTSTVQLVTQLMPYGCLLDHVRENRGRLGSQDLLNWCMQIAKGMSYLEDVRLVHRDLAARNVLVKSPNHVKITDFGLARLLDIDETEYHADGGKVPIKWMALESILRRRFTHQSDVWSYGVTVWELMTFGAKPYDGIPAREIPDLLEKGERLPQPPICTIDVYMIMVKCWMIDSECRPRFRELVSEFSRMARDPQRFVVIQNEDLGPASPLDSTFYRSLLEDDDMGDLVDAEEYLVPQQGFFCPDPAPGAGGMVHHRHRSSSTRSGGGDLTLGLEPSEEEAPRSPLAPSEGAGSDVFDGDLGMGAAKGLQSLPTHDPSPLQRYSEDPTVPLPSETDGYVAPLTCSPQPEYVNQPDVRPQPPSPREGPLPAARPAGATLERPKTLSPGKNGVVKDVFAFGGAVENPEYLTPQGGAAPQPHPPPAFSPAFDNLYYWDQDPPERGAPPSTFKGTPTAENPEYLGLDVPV
T4 sequence (P04626 with tags, fused parts or gaps DUP772-775): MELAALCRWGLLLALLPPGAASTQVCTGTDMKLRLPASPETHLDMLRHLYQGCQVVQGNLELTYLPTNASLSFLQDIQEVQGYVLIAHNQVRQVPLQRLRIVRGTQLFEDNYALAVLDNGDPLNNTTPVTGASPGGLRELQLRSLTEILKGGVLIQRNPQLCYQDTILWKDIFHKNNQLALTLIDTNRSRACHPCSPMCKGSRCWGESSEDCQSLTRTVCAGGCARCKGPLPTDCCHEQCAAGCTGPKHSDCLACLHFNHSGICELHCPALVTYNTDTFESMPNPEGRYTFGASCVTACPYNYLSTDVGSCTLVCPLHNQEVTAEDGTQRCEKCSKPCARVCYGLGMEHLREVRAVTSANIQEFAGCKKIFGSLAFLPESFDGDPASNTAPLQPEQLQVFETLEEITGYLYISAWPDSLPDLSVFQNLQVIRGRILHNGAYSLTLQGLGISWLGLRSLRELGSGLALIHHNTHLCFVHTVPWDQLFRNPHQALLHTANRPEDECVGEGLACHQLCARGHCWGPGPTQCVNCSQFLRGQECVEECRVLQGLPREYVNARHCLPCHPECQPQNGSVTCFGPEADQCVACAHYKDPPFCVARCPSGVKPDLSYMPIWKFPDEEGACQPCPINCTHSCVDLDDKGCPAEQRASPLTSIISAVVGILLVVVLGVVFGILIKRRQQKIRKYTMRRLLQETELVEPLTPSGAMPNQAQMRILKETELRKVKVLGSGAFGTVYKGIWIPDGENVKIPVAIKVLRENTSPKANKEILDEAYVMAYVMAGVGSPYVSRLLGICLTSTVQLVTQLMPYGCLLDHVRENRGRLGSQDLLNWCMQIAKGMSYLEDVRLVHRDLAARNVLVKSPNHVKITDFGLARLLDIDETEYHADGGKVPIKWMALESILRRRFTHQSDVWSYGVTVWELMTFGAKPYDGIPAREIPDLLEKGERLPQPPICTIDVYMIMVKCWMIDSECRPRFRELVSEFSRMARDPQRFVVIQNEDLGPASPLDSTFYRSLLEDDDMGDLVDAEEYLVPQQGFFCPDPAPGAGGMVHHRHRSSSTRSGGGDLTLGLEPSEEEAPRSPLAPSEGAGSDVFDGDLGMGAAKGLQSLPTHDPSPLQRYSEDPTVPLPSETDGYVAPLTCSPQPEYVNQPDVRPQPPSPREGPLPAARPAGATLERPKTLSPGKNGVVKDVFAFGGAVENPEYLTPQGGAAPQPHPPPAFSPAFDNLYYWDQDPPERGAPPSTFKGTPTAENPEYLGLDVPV

| Compound | GI50 [1] | GI50 [2] | GI50 [3] | GI50 [4] | GI50 [5] | GI50 [6] | GI50 [7] | GI50 [8] | GI50 [9] |
| --- | --- | --- | --- | --- | --- | --- | --- | --- | --- |
| Cc1cc(Nc2ncnc3ccc(NC4=NC(C)(C)CO4)cc23)ccc1Oc1ccn2ncnc2c1 [Tucatinib, tucatinib, reference compound] | 63.5 nM | 228 nM | 11 nM | 356 nM | 12.5 nM | 26.5 nM | 1370 nM | 193 nM | 25.3 nM |
| CC#CC(=O)Nc1ccc2ncnc(Nc3ccc(Oc4ccn5ncnc5c4)c(C)c3)c2c1 [Compound 1, N-[4-[(3-methyl-4-[[1,2,4]triazolo[1,5-a]pyridin-7-yloxy]phenyl)amino]quinazolin-6-yl]but-2-ynamide] | < 1 nM | ~1 nM | < 1 nM | 4.4 nM | < 1 nM | 1.5 nM | 15 nM | 2.6 nM | 0.65 nM |
| CC#CC(=O)Nc1cc2c(Nc3ccc(Oc4ccn5ncnc5c4)c(C)c3)ncnc2cc1OCCN(C)C [Compound 150, N-[7-[2-(dimethylamino)ethoxy]-4-[(3-methyl-4-[[1,2,4]triazolo[1,5-a]pyridin-7-yloxy]phenyl)amino]quinazolin-6-yl]but-2-ynamide] | 4.31 nM | 11.4 nM | 1.73 nM | 8.42 nM | 3.01 nM | 2.12 nM | 56.9 nM | 13.6 nM | 2.63 nM |

From patent US20230265098A1, “ALKYNE QUINAZOLINE DERIVATIVES AS INHIBITORS OF ERBB2” (EnLiven Therapeutics, Inc., priority 2020, published 2023)
